Results: BigSolDB 2.1

O=C(O)c1cc([N+](=O)[O-])ccc1O
solubility (mole fraction)
Conditions	278.15 K	283.15 K	288.15 K	293.15 K	298.15 K	303.15 K	308.15 K	313.15 K	318.15 K	323.15 K
in 1,4-dioxane	–	–	0.105	0.112	0.12	0.129	0.137	0.147	0.158	0.168
in DMF	0.0752	0.0819	0.0894	0.0993	0.111	0.126	0.143	0.161	0.181	0.204
in NMP	0.105	0.111	0.119	0.13	0.141	0.156	0.17	0.187	0.204	0.223
in acetonitrile	0.0327	0.0366	0.0416	0.0481	0.0553	0.0632	0.0724	0.0814	0.0908	0.102
in ethanol	0.0281	0.0307	0.0338	0.0379	0.0429	0.0481	0.0541	0.0605	0.0675	0.0752
in ethyl acetate	0.0202	0.0234	0.027	0.031	0.0355	0.0404	0.0455	0.0509	0.0566	0.063
in ethylene glycol	0.00911	0.0116	0.0142	0.0164	0.0197	0.0233	–	–	–	–
